Test results published in US6511673B1, “Microbicidal composition” (Rohm and Haas Company, priority 2000, dated 2003).
Where two headings read alike, the source gives them in different places.

Assays:
Type in all cases: cell-based
[1] = system: Aspergillus niger (ATCC #16404); experiment: MIC synergy assay in TSB, Test Medium Condition 1 (two-fold serial dilution); settings: ATCC16404, 168 h
Description: (§1) Synergism was determined by an industrially accepted method described by Kull, F. C.; Eisman, P. C.; Sylwestrowicz, H. D. and Mayer, R. L., in Applied Microbiology 9:538-541 (1961), using the ratio determined by the formula:
(§2) Qa/QA+Qb/QB=Synergy Index (“SI”)
(§3) When the sum of Qa/QA and Qb/QB is greater than one, antagonism is indicated. […] The lower the SI, the greater the synergy shown by that particular mixture. The minimum inhibitory concentration (MIC) of a microbicide is the lowest concentration tested under a specific set of conditions that prevents the growth of added microorganisms.
Synergism of combinations of microbicides was determined using standard MIC assays in trypticase soy broth medium (“TSB” medium). In this method, a range of concentrations was tested by preparing two-fold serial dilutions of the compound tested in 96-well microtiter plates. All liquid media transfers were performed with calibrated single or multichannel digital pipettors. Stock solutions of the microbicides were prepared in appropriate solvents and added to the TSB medium. All subsequent dilutions in plates were made using an automated liquid handling system. Final concentrations of microbicides were obtained by making two-fold serial dilutions in two directions in the microtiter plate. […]

Candida albicans = experiment: High resolution MIC synergy assay in TSB, Test Medium Condition 2 (ten-fold serial dilution)
Description: as §1, §2, §3
(§4) Synergism of combinations of microbicides was determined using standard MIC assays in trypticase soy broth medium (“TSB” medium). In this method, a range of concentrations was tested by preparing two-fold serial dilutions of the compound tested in 96-well microtiter plates. All liquid media transfers were performed with calibrated single or multichannel digital pipettors. Stock solutions of the microbicides were prepared in appropriate solvents and added to the TSB medium. All subsequent dilutions in plates were made using an automated liquid handling system. Final concentrations of microbicides were obtained by making two-fold serial dilutions in two directions in the microtiter plate. […] A cell suspension of either Aspergillus niger (A. niger, ATCC #16404) or Candida albicans (C. albicans, ATCC #10231), adjusted to provide 1×10^5 cells per mL in each well, was added to the microtiter plates.
(§5) In a manner similar to that described above for Test Medium Condition 1, the synergism of combinations of microbicides determined in TSB by conducting high resolution MIC assays in the presence of various concentrations of MI. High resolution MICs were determined by adding varying amounts of microbicide to one column of a microtitre plate and doing subsequent […] dilutions using an automated liquid handling system to obtain a series of endpoints ranging from 2 ppm to 10,000 ppm active ingredient.

Aspergillus niger = experiment: as above
Description: as §1, §2, §3, §4, §5

[2] = 72 h, read-out: QA, MIC of Compound A acting alone

Structure (SMILES) | MIC ([1]; A. niger, TSB, two-fold serial dilution, 25° C. one week, read-out: QB, MIC of Compound B acting alone) [µg/mL] | MIC (Candida albicans; C. albicans, TSB, high resolution MIC, 25° C. 72 hours, read-out: QB, MIC of Compound B acting alone) [µg/mL] | MIC (Aspergillus niger; A. niger, TSB, high resolution MIC, 25° C. 72 hours, read-out: QB, MIC of Compound B acting alone) [µg/mL] | MIC ([1]; read-out: QA, MIC of Compound A acting alone) [µg/mL] | MIC (Candida albicans; [2]) [µg/mL] | MIC (Aspergillus niger; [2]) [µg/mL]
CCCOC(=O)c1ccc(O)cc1 [PP, propyl para-hydroxybenzoate] | 594 | 300 | 200 | – | – | –
Cn1sccc1=O [MI, 2-methyl-3-isothiazolone] | – | – | – | 250 | 100 | 150
